Reference: ChEMBL document CHEMBL3885861, “Open TG-GATES”

Species on record: Rattus norvegicus
Experiment: Open TG-GATES - Regimen: Single
Type: toxicity, organism-based, Sprague-Dawley
Design: regimen Single, gender Male, age 6 weeks
Settings: in vivo, po, 10 mg/kg, route gavage, dose level Low; for Bas / Eos / Hb / Ht / Lym / MCH / MCHC / MCV / Mono / Neu / Plat / RBC / Ret / WBC: tissue Blood; for KIDNEY_L / KIDNEY_R / KIDNEY_TOTAL: tissue Kidney; for LIVER: tissue Liver; for A/G / ALP / ALT / AST / BUN / CRE / Ca / Cl / DBIL / GLC / IP / K / LDH / Na / PL / RALB / TBIL / TC / TG / TP / gamma-GTP: tissue Plasma

Cc1ccc2cc3c(ccc4ccccc43)c3c2c1CC3 [3-METHYLCHOLANTHRENE]
TERMINAL_BW (3 h): 210.8 g
Bas (3 h): 0%
Eos (3 h): 0.8%
Hb (3 h): 12.6 g/dL
Ht (3 h): 39.3%
Lym (3 h): 77.6%
MCH (3 h): 20.5 pg
MCHC (3 h): 32.2%
MCV (3 h): 63.7 fL
Mono (3 h): 3.4%
Neu (3 h): 17.8%
Plat (3 h): 130.6 x10_4/uL
RBC (3 h): 616.6 x10_4/ul
Ret (3 h): 9.1%
WBC (3 h): 94.8 x10_2/uL
KIDNEY_L (3 h): 0.9 g
KIDNEY_R (3 h): 0.9 g
KIDNEY_TOTAL (3 h): 1.8 g
LIVER (3 h): 9.5 g
A/G (3 h): 1
ALP (3 h): 1720 IU/L
ALT (3 h): 46.6 IU/L
AST (3 h): 81 IU/L
BUN (3 h): 13.1 mg/dL
CRE (3 h): 0.1 mg/dL
Ca (3 h): 10.9 mg/dL
Cl (3 h): 103 meq/L
DBIL (3 h): 0.002 mg/dL
GLC (3 h): 175.4 mg/dL
IP (3 h): 8.4 mg/dL
K (3 h): 4.2 meq/L
LDH (3 h): 201.8 IU/L
Na (3 h): 139.7 meq/L
PL (3 h): 172 mg/dL
RALB (3 h): 2.9 g/dL
TBIL (3 h): 0.004 mg/dL
TC (3 h): 80 mg/dL
TG (3 h): 185.2 mg/dL
TP (3 h): 5.6 g/dL
gamma-GTP (3 h): 0.7 IU/L
TERMINAL_BW (6 h): 205.3 g
Bas (6 h): 0%
Eos (6 h): 0.4%
Hb (6 h): 12.9 g/dL
Ht (6 h): 38.8%
Lym (6 h): 73.8%
MCH (6 h): 20.7 pg
MCHC (6 h): 33.3%
MCV (6 h): 62.1 fL
Mono (6 h): 3.6%
Neu (6 h): 21.2%
Plat (6 h): 131.8 x10_4/uL
RBC (6 h): 625.8 x10_4/ul
Ret (6 h): 7.9%
WBC (6 h): 136.1 x10_2/uL
KIDNEY_L (6 h): 0.9 g
KIDNEY_R (6 h): 0.9 g
KIDNEY_TOTAL (6 h): 1.8 g
LIVER (6 h): 8.3 g
A/G (6 h): 1
ALP (6 h): 1483.2 IU/L
ALT (6 h): 37.6 IU/L
AST (6 h): 74.6 IU/L
BUN (6 h): 8.2 mg/dL
CRE (6 h): 0.1 mg/dL
Ca (6 h): 10.6 mg/dL
Cl (6 h): 105.3 meq/L
DBIL (6 h): 0.002 mg/dL
GLC (6 h): 165.8 mg/dL
IP (6 h): 9.2 mg/dL
K (6 h): 4.2 meq/L
LDH (6 h): 162 IU/L
Na (6 h): 140.5 meq/L
PL (6 h): 160.6 mg/dL
RALB (6 h): 2.8 g/dL
TBIL (6 h): 0.004 mg/dL
TC (6 h): 87.6 mg/dL
TG (6 h): 79.2 mg/dL
TP (6 h): 5.6 g/dL
gamma-GTP (6 h): 0.7 IU/L
TERMINAL_BW (9 h): 205.9 g
Bas (9 h): 0%
Eos (9 h): 0.8%
Hb (9 h): 12.2 g/dL
Ht (9 h): 37.7%
Lym (9 h): 74.2%
MCH (9 h): 20.2 pg
MCHC (9 h): 32.5%
MCV (9 h): 62 fL
Mono (9 h): 2.8%
Neu (9 h): 21.6%
Plat (9 h): 122.2 x10_4/uL
RBC (9 h): 608.4 x10_4/ul
Ret (9 h): 8.9%
WBC (9 h): 114.6 x10_2/uL
KIDNEY_L (9 h): 0.9 g
KIDNEY_R (9 h): 0.9 g
KIDNEY_TOTAL (9 h): 1.7 g
LIVER (9 h): 8.3 g
A/G (9 h): 1
ALP (9 h): 1540.8 IU/L
ALT (9 h): 33.6 IU/L
AST (9 h): 72 IU/L
BUN (9 h): 11.6 mg/dL
CRE (9 h): 0.1 mg/dL
Ca (9 h): 10.5 mg/dL
Cl (9 h): 104.7 meq/L
DBIL (9 h): 0 mg/dL
GLC (9 h): 174.4 mg/dL
IP (9 h): 10.2 mg/dL
K (9 h): 4.4 meq/L
LDH (9 h): 186.6 IU/L
Na (9 h): 142.1 meq/L
PL (9 h): 155.2 mg/dL
RALB (9 h): 2.8 g/dL
TBIL (9 h): 0.002 mg/dL
TC (9 h): 81.4 mg/dL
TG (9 h): 90.6 mg/dL
TP (9 h): 5.5 g/dL
gamma-GTP (9 h): 0.8 IU/L
TERMINAL_BW (24 h): 216.8 g
Bas (24 h): 0%
Eos (24 h): 0.2%
Hb (24 h): 12.7 g/dL
Ht (24 h): 38.9%
Lym (24 h): 79%
MCH (24 h): 20.2 pg
MCHC (24 h): 32.6%
MCV (24 h): 62 fL
Mono (24 h): 3.4%
Neu (24 h): 16.2%
Plat (24 h): 120.4 x10_4/uL
RBC (24 h): 627.6 x10_4/ul
Ret (24 h): 7.9%
WBC (24 h): 105.1 x10_2/uL
KIDNEY_L (24 h): 0.9 g
KIDNEY_R (24 h): 1 g
KIDNEY_TOTAL (24 h): 1.9 g
LIVER (24 h): 10.7 g
A/G (24 h): 1
ALP (24 h): 1758 IU/L
ALT (24 h): 40.6 IU/L
AST (24 h): 73.8 IU/L
BUN (24 h): 15.7 mg/dL
CRE (24 h): 0.1 mg/dL
Ca (24 h): 10.9 mg/dL
Cl (24 h): 103.5 meq/L
DBIL (24 h): 0.002 mg/dL
GLC (24 h): 179.6 mg/dL
IP (24 h): 6.9 mg/dL
K (24 h): 4.4 meq/L
LDH (24 h): 173.4 IU/L
Na (24 h): 141.7 meq/L
PL (24 h): 165.6 mg/dL
RALB (24 h): 2.8 g/dL
TBIL (24 h): 0.002 mg/dL
TC (24 h): 81.6 mg/dL
TG (24 h): 150.3 mg/dL
TP (24 h): 5.5 g/dL
gamma-GTP (24 h): 0.8 IU/L
